Values joined by “and” are separate entries in the source; they are usually repeats but may differ in a detail not shown here. Equal values may be shown once. “Also recorded” adds a separate entry of the source.
Experiments:
[1] = tested on: p-STAT3 in MDA-MB-231 cells; test: Western blot of p-STAT3 / total STAT3 in MDA-MB-231 cells; format: cell-based, human; details: for IC50: Homo sapiens, MDA-MB-231, 1 h, MDA-MB-231, 1 h treatment, densitometry of Western blots, approximate, read-out: IC50 for inhibition of p-STAT3 levels
Procedure: The expression of different proteins involved in IL-6 signaling pathway was analyzed by Western blots, as previously described. Briefly, MDA-MB-231 or A549 cells (2 × 10^6 cells/well) were seeded overnight in DMEM/RPMI plus 2% FBS, followed by incubation with MH or sugar control (SC) in 5% FBS-DMEM/RPMI for different times, as indicated in the figures. In some studies, we investigated the effect of treatment with different flavonoid compounds on p-STAT3 expression using a range of doses (0.4–50 μM). In other experiments, we also studied the effect of incubating MDA-MB-231 cells in the presence of Brefeldin A (BFA; 1 mg/mL) alone or with 1% MH for 4 h on p-STAT3 levels. Cell extracts were prepared in RIPA buffer and subjected to Western blot analysis using antibodies (purchased from Cell Signaling Technology, Danvers, MA, USA) specific to total STAT3 (t-STAT3), tyrosine-phosphorylated (Tyr705) STAT3 (p-STAT3), gp130, JAK2, tyrosine-phosphorylated (Tyr1007/1008) JAK2 (p-JAK2), tyrosine-phosphorylated (Tyr416) Src family (p-Src), total Src, and β-actin. Densitometric analysis of the band intensity on the blots was done using ImageJ (National Institutes of Health, USA). We modeled the binding inhibition pharmacodynamics of p-STAT3 levels as standard drug-receptor interactions based on mass-action kinetics. Specifically, dose response was modelled as: Y=[L]/[L]+K where Y is the receptor occupancy, L is the ligand concentration, and K is a compound-specific association constant.
Statistical significance between control and treated groups was analyzed using the unpaired, two-tailed Student’s t-test, using the statistical program of GraphPad Prism version 6 software (San Diego, CA, USA). For multiple comparisons, we used ordinary two-way ANOVA (GraphPad Prism). Differences between the experimental groups were considered significant when p values were <0.05. Nonlinear regression best-fit curve analysis was used to determine the IC50 for p-STAT3 inhibition.

IL-6Rα = target: T1, IL-6Rα (Homo sapiens, UniProt P08887); test: ELISA-based competitive binding assay, IL-6 binding to immobilized IL-6Rα
T1 construct: purchased R&D Systems
T1 sequence (P08887 20-355 limits assumed): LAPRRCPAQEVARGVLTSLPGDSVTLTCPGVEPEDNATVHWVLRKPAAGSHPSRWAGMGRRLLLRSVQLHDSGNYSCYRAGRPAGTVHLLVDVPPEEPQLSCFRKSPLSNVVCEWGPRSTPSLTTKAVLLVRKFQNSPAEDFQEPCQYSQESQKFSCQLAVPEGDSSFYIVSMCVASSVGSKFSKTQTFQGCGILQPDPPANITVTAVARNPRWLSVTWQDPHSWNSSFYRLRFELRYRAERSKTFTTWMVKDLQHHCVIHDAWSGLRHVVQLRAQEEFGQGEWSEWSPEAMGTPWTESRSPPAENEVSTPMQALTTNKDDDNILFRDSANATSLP
Procedure: We used an ELISA-based assay to determine if MH can bind to recombinant IL-6Rα, IL-8R, and IL-11Rα proteins (all purchased from R&D Systems; Minneapolis, MN, USA). IL-6Rα (2 μg/mL), IL-8R (0.5 μg/mL), or IL-11Rα (1 μg/mL) proteins were coated on 96-well plates by overnight incubation at 4 °C. The plates were then washed with PBS + 0.05% tween 20 and blocked with PBS containing 1% BSA for 1 h at room temperature. For competition assay, various concentrations of MH (0.03–3%) were added to recombinant receptor-coated plates and incubated for 1 h at room temperature. After thorough washing, recombinant IL-6, IL-8, or IL-11 cytokines were added (50 ng/mL) and incubated for 1 h at 37 °C. The plates were then thoroughly washed and biotin-conjugated mAbs to IL-6 (0.25 µg/mL), IL-8 (0.5 µg/mL) or IL-11 (0.5 µg/mL) were added for 1 h at room temperature. After another round of washing, HRP-conjugated streptavidin was added for 30 min, washed, and developed by adding 3,3′,5,5′-Tetramethylbenzidine (TMB) substrate for 10 min. Additionally, the potential effect of flavonoid compounds (luteolin, quercetin, galangin, and chrysin; dose range 0.5–50 μM) on binding to IL-6Rα was investigated in the same assay. The dose-response was modeled based on mass-action kinetic drug-response interactions.

[2] = tested on: p-STAT3 in human bladder cancer cells; parameters: method as in PMID 29805643; details: 40–80 μM, mostly after 24 h; cited from earlier work
[3] = tested on: STAT3 in different types of cancer cells; parameters: method as in PMID 16651438, PMID 23145121, PMID 24525192, PMID 24998588, PMID 26527884; details: different cancer cell types; cited from earlier work
[4] = tested on: p-STAT3 in lung cancer cells; parameters: method as in PMID 25830055; details: 66 μM, 12–24 h; cited from earlier work
[5] = 10-fold lower concentration (5 μM)

Structure (SMILES)	IC50 [1]	inhibition of IL-6 binding to IL-6Rα (IL-6Rα; 50 μM flavonoid) [%]	inhibition of IL-6 binding to IL-6Rα (IL-6Rα; [5])	p-STAT3 levels ([1]; MDA-MB-231, 4 h, Brefeldin A 1 mg/mL alone or with 1% MH)	p-STAT3 [2]	concentration range at which inhibitory effects were observed [3] [µM]	binding to IL-6Rα (IL-6Rα; up to 50 μM)	p-STAT3 levels [4]
C[C@H]1CCC/C=C/[C@@H]2C[C@H](O)C[C@H]2[C@H](O)/C=C/C(=O)O1 [Brefeldin A]	–	–	–	significant loss	–	–	–	–
O=c1cc(-c2ccc(O)c(O)c2)oc2cc(O)cc(O)c12 [luteolin]	~3.5 µM and 1 µg/mL	22.4	–	–	–	20 to 50	–	–
O=C1C[C@@H](c2ccccc2)Oc2cc(O)cc(O)c21 [pinocembrin]	~70.2 µM and 18 µg/mL	–	–	–	–	–	no significant binding; also recorded: inability to detect any binding	–
O=c1c(O)c(-c2ccc(O)c(O)c2)oc2cc(O)cc(O)c12 [quercetin]	~51 µM and 15.4 µg/mL	29.2	decreased but significant inhibition	–	–	–	–	reduce p-STAT3 levels

Further lines, with some results ahead:

IC50 [1]	inhibition of IL-6 binding to IL-6Rα (IL-6Rα; 50 μM flavonoid) [%]	inhibition of IL-6 binding to IL-6Rα (IL-6Rα; [5])	Structure (SMILES)	p-STAT3 levels ([1]; MDA-MB-231, 4 h, Brefeldin A 1 mg/mL alone or with 1% MH)	p-STAT3 [2]	concentration range at which inhibitory effects were observed [3] [µM]	binding to IL-6Rα (IL-6Rα; up to 50 μM)	p-STAT3 levels [4]
~7.7 µM and 2 µg/mL	31.8	decreased but significant inhibition	O=c1cc(-c2ccccc2)oc2cc(O)cc(O)c12 [chrysin]	–	inhibit p-STAT3	–	–	–
~4.4 µM and 1.2 µg/mL	34.3	decreased but significant inhibition	O=c1c(O)c(-c2ccccc2)oc2cc(O)cc(O)c12 [galangin]	–	–	–	–	–

— paper PMC6769459, “Inhibition of Tyrosine-Phosphorylated STAT3 in Human Breast and Lung Cancer Cells by Manuka Honey is Mediated by Selective Antagonism of the IL-6 Receptor” (International Journal of Molecular Sciences, 2019)
